Source: ChEMBL document CHEMBL1201862, “PubChem BioAssay data set” (2004)
Counter-ions that a name gives are not always drawn. Calls of active or inactive are those of the source.

Columns and labels:
[1] = target: FAD-linked sulfhydryl oxidase ALR (Homo sapiens, UniProt P55789); experiment: inhibitors of human ALR sulfhydryl oxidase, dose response, biochemical, H2O2 detection, luminescence, cherry-pick (AID 493248)
[2] = THP-1 cell cytotoxicity, dose response, cytotoxicity control for non-replicating M. tuberculosis project (AID 489025); type: functional
cells = type: functional
[3] = target: T1, Short transient receptor potential channel 4 (Mus musculus, UniProt Q9QUQ5); experiment: mouse TRPC4 channel inhibitors, dose response, cell-based, HEK293 TRPC4/mu-opioid, Fluo-4 calcium (AID 434942); type: functional;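 note: potency of inhibitors blocking the TRPC4 calcium response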
T1 sequence (Q9QUQ5 whole entry): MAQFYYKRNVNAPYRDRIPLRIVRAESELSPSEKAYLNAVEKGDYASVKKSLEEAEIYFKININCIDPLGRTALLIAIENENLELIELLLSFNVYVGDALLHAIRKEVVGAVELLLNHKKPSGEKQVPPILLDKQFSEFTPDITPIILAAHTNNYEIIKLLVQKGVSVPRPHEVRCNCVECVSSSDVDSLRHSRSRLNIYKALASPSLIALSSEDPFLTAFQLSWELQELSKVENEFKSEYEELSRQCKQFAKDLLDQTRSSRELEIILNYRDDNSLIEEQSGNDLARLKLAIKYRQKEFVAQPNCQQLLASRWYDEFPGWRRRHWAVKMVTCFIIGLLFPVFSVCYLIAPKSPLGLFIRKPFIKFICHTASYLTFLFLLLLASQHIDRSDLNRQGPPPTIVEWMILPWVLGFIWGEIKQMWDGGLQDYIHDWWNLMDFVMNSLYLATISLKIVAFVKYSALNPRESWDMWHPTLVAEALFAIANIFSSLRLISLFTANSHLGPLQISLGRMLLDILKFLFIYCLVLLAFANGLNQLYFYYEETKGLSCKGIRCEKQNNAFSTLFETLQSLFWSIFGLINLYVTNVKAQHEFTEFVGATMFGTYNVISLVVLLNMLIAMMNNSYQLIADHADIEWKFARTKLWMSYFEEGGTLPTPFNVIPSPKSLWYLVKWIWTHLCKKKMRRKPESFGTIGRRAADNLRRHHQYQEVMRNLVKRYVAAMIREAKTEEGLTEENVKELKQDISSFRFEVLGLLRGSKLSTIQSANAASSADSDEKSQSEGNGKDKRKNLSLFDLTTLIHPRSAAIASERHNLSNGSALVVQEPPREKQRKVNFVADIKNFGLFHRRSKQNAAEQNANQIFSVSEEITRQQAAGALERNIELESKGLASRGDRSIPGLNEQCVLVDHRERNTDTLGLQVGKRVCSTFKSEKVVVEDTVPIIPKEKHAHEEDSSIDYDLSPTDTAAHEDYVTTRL

Caspase-6 = target: T2, Caspase-6 (Homo sapiens, UniProt P55212); experiment: human caspase-6 inhibitors, dose response, biochemical, VEID-R110 fluorescence, cherry-pick (AID 720632)
T2 sequence (P55212 whole entry): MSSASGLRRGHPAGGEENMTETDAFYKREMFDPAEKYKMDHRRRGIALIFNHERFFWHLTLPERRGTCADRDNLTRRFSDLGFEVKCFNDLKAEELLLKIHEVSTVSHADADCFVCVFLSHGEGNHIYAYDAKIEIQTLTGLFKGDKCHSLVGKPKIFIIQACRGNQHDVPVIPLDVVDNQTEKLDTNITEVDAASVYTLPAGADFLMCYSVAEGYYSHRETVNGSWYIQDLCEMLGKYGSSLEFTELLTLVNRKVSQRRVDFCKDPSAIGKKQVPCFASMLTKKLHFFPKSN

[4] = target: T3, DNA repair protein RAD52 homolog (Homo sapiens, UniProt P43351); type: functional, biochemical
T3 sequence (P43351 whole entry): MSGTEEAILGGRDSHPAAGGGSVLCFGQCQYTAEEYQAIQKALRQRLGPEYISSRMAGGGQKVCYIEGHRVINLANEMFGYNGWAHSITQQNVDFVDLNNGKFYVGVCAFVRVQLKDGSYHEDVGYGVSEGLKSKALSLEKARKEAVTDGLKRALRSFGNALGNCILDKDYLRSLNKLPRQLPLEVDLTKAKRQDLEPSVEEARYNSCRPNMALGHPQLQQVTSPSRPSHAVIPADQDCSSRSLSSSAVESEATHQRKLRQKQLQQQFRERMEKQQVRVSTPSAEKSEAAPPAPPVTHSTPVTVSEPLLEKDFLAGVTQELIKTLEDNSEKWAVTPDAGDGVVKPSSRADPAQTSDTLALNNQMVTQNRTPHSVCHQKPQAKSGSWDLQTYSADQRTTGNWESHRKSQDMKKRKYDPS

[5] = microbe, parasite or virus in culture; type: functional; conditions: Mycobacterium tuberculosis
[6] = NIH-3T3 fibroblast cytotoxicity, dose response, cytotoxicity control, cell-based, fluorescence, Alamar Blue, secondary assay (AID 2327); type: functional;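 note: NIH-3T3 mouse fibroblasts cultured with fluconazole at 8 µg/mL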
[7] = inhibitors of intracellular T. cruzi replication, confirmation, NIH3T3 host cells, beta-gal luminescence (AID 2044); type: functional, cell-based;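 note: intracellular parasites grown in NIH/3T3 mouse fibroblasts as host cells; luminescent beta-galactosidase reporter signal from transgenic T. cruzi replicating inside host cells; inhibitors lower the luminescence signal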
[8] = C. albicans growth with fluconazole, confirmation, fluorescence, retest (AID 2467); type: functional, cell-based
[9] = cytotoxicity toward NIH3T3 fibroblasts, dose response, counter-screen, cell-based, ATP luminescence, mouse fibroblasts (AID 2010); type: functional;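 note: cells exposed to compound for about 90 hours before reading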
[10] = Luminescence Cell-Based Dose Response HTS to Identify Inhibitors of 5'UTR Stem-Loop Driven Prion Protein mRNA Translation in H4 Neuroglioblastoma Cells. [Related pubchem assays: 1827 (Project Summary), 1813 (Primary HTS)]; type: functional
[11] = inhibitors of SNCA 5'UTR-driven reporter translation, confirmation, H4 neuroglioma cells, luminescence (AID 1988); type: functional, cell-based
[12] = inhibitors of firefly luciferase expression or activity, dose response, H4 neuroglioma cells, luminescence (AID 1990); type: functional, cell-based
[13] = target: T4, Corticotropin-releasing factor receptor 2/Corticotropin-releasing factor-binding protein (Homo sapiens, UniProt P24387+Q13324); experiment: Dose Response confirmation of uHTS hits for small molecule antagonists of the CRF-binding protein and CRF-R2 receptor complex.; type: functional; conditions: read-out: IC50_Mean
T4 sequence (Q13324 whole entry): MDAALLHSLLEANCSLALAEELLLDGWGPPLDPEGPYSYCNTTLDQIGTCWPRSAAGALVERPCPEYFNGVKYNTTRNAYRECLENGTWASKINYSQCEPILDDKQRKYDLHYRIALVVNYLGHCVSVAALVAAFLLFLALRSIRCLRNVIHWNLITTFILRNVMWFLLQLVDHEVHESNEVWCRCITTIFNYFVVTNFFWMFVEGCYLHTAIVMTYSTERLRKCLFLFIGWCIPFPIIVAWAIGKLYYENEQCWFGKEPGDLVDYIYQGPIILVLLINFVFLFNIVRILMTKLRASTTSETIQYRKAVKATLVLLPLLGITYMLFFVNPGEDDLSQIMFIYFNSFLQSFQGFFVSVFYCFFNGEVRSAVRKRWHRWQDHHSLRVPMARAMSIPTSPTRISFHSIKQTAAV
T4 sequence (P24387 whole entry): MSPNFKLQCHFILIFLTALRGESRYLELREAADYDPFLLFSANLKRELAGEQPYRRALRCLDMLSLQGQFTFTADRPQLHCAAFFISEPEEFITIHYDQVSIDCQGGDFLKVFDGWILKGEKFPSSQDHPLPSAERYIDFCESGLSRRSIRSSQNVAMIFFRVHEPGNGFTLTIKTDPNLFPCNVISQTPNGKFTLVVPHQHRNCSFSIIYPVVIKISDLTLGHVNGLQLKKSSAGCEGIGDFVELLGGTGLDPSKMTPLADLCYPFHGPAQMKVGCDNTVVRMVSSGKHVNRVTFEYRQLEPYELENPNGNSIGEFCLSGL

[14] = target: T4, Corticotropin-releasing factor receptor 2/Corticotropin-releasing factor-binding protein; experiment: activators of CRF receptor 2 with binding protein – uHTS hits, confirmation (AID 602473); type: functional; conditions: read-out: EC50_Mean
[15] = target: T5, Rac GTPase-activating protein 1 (Homo sapiens, UniProt Q9H0H5); experiment: MgcRacGAP GTPase-activating activity inhibitors, confirmation, biochemical, ADP Hunter fluorescence, primary and confirmatory (AID 624330); type: functional
T5 sequence (Q9H0H5 whole entry): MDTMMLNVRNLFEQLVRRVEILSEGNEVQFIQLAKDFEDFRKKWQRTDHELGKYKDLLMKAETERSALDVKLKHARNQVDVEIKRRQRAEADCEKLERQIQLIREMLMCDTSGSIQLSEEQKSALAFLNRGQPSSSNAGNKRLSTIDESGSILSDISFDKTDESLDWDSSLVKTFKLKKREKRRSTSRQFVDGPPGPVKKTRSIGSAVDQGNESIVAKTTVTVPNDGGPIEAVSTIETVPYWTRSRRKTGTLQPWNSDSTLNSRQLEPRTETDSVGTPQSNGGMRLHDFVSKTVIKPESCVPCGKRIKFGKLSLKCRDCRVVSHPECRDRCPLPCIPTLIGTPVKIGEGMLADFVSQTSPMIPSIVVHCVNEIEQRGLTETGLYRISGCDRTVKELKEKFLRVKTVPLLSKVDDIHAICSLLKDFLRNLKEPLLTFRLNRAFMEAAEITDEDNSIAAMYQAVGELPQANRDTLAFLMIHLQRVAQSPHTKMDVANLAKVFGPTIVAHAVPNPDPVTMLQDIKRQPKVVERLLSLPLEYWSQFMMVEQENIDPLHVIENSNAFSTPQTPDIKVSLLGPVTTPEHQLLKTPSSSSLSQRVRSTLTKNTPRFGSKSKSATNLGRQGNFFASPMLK

Chain of FAD-linked sulfhydryl oxidase ALR (P55789 whole entry): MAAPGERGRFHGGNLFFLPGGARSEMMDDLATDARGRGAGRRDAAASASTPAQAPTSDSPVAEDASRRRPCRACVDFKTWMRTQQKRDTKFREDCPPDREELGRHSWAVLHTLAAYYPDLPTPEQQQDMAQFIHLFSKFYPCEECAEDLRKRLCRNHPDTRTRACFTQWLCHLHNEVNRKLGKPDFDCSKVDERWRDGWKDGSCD

NNC(=O)CCc1nc2ccc(O)cc2[nH]1
AC50 [1]: 3.82 µM (active)

CC(C)(C)Nc1nc(NC(C)(C)C)nc(-n2ccnc2)n1
CC50 [2]: > 40 µM (active) | IC50 (cells): 22.9 µM (active)

O=C(Cc1ccccc1)N1CCN(Cc2cccc(Br)c2)CC1
EC50 [3]: 13.3 µM (active)

C[C@](N)(Cc1ccc(O)c(O)c1)C(=O)O [METHYLDOPA]
AC50 (Caspase-6): 39.2 µM (active)

Cc1cc(N)ccc1NC(=O)CN1CCCC1
AC50 [4]: 1.73 µM (active)

Cc1cc(-c2c(C)[nH]n(-c3ccccc3)c2=O)[nH]n1
CC50 [2]: > 40 µM (active) | IC50 (cells): 5.35 µM (active) | AC50 [1]: 5.41 µM (active) | CC50 [5]: 33 µM (active)

Cc1ccc2c(c1)N(C(=O)CCC(=O)Nc1ccccc1Cl)CC(C)O2 (stereo not drawn)
EC50 [3]: 1.5 µM (active)

NC(=O)C1C(=O)c2ccccc2C1(C[N+](=O)[O-])c1ccccc1 (stereo not drawn)
AC50 (Caspase-6): 38.1 µM (active)

Cc1cccc(-n2nc(C)c3c(C(=O)O)cc(-c4cccs4)nc32)c1
EC50 [3]: 2.99 µM (active)

CC(=O)c1ccc(-[n+]2cc(-c3ccc(C(C)(C)C)cc3)n3c2SCCC3)cc1
EC50 [6]: > 150 µM (inactive) | CC50 [2]: 11.4 µM (active) | EC50 [7]: 0.443 µM (active) | IC50 (cells): 20.9 µM (active) | EC50 [8]: 2.03 µM (active) | EC50 [9]: > 60 µM (not active) | CC50 [5]: > 40 µM (active)

O=S(=O)(c1ccccc1)N1CCN(C/C=C/c2ccccc2)CC1
EC50 [3]: 5.96 µM (active)

Cn1c(N)c(N=O)c(=O)n(C)c1=S
AC50 (Caspase-6): 6.37 µM (active)

COc1ccc(CN2CCN(C(=O)c3ccc(F)cc3)CC2)c(OC)c1
EC50 [3]: 3.76 µM (active)

CN(C)c1ccc(C(=S)N2CCNCC2)cc1
AC50 [1]: 2.18 µM (active)

OCCN1CCN(CC(O)COc2ccc(C34CC5CC(CC(C5)C3)C4)cc2)CC1 (stereo not drawn)
AC50 [4]: 16 µM (active) | EC50 [10]: > 120 µM (not active) | EC50 [11]: > 120 µM (not active) | EC50 [12]: > 120 µM (not active)

N#Cc1nc(-c2ccc(OCc3ccccc3)cc2)oc1NCCCn1ccnc1
CC50 [2]: 24.7 µM (active) | IC50 (cells): 46.5 µM (active) | CC50 [5]: > 40 µM (active)

COc1cccc(C(=O)N2CCCC(Nc3ccc(C)c(C)c3)C2)c1 (stereo not drawn)
AC50 [1]: 7.17 µM (active)

COc1cc(Cl)c(C)cc1NC(=O)CSc1ccc(C)cc1
IC50 [13]: > 47.1 µM (inactive) | EC50 [14]: > 53 µM (inactive)

Oc1cnnc(Nc2ccc(Nc3ccccc3)cc2)n1
AC50 [1]: 0.323 µM (active)

Cc1nc2ccc(-c3nc4cc(N)ccc4[nH]3)cc2[nH]1
EC50 [10]: 16.6 µM (active) | AC50 [1]: 0.736 µM (active) | EC50 [11]: 38 µM (active) | IC50 [15]: 54 µM (active) | EC50 [12]: > 120 µM (not active)

COc1cc(C(=O)NCC(c2ccco2)N2CCc3ccccc32)cc(OC)c1OC (stereo not drawn)
AC50 [1]: 5.5 µM (active)

CC12CCC(C(=O)N/N=C/c3ccc(O)cc3)(OC1=O)C2(C)C (stereo not drawn)
AC50 [1]: 0.099 µM (active)

CCc1nnc(N=C(S)Nc2ccccc2)s1
IC50 [13]: > 47.1 µM (inactive) | EC50 [14]: > 53 µM (inactive)

C=CCNC(S)=NNC(=O)c1ccc(OCC)cc1
IC50 [13]: > 47.1 µM (inactive) | EC50 [14]: > 53 µM (inactive)

CCOc1c(Cl)cc(CNCC(O)c2ccccc2)cc1OC (stereo not drawn)
EC50 [3]: 2.11 µM (active)

CC[C@@H](CO)NC(=O)[C@@H]1C=C2c3cccc4[nH]cc(c34)C[C@H]2N(C)C1 [METHYLERGONOVINE MALEATE]
AC50 (Caspase-6): 7.04 µM (active)
